# “Also recorded” adds a separate entry of the source. Read-outs that look alike come from different tables or passages of the source.
# Tests used:
# SaHPPK [1] = molecular target: T1, SaHPPK (Staphylococcus aureus, UniProt A0A0H3JXR3); test: SPR binding to SaHPPK
# From the text: Initially, the binding of each of the test compounds to SaHPPK was quantitatively assessed using SPR (Fig. S1, S2). […] Moreover, all sensorgrams (Fig. S1 and S2) were of high quality and consistent with near perfect 1∶1 stoichiometric binding of analogues. Table 1 lists the estimated equilibrium dissociation constants (KD). […] This supports the hypothesis that the 8-mercapto group of 8-MG aids binding through the formation of one or more favorable interactions with SaHPPK.
# All SPR binding experiments were performed as described previously. The only difference was the use of a sulfhydryl reactive maleimide-activated biotin derivative (Thermo Scientific, 1-biotinamido-4-(4′-[maleimidoethylcyclohexane]-carboxamido)butane. The maleimide-activated biotin was attached to the exposed surface cysteine residue of SaHPPK according to manufacturer’s instructions. The resulting site-specific biotinylated protein was immobilized onto the sensor chip surface using the Biotin capture kit (GE Healthcare). All analogues were serially diluted (either 2- or 3-fold from 126 µM down to 1.5 µM) in SPR binding buffer (50 mM HEPES, 150 mMNaCl, 1 mM TCEP, 0.05% (v/v) Tween-20, 10 mM MgCl2, 5% (v/v) DMSO, pH 8.0) and injected for 30 sec contact time at 60 µL/min and then allowed to dissociate for 60 sec. Binding sensorgrams were processed using the Scrubber (version 2c, BioLogic Software, Campbell, Australia). To determine the binding affinity (equilibrium dissociation constant; KD), responses at equilibrium for each compound were fit to a 1∶1 steady state affinity model available within Scrubber.
# SaHPPK [2] = molecular target: T1, SaHPPK; test: ITC binding to SaHPPK; details: 298 K; for ΔG: calculated as -RT.lnKa; for TΔS: calculated using ΔG = ΔH - TΔS; for Kd: read-out: K D ITC
# Method: To corroborate the ligand binding affinities determined by SPR, and to determine the enthalpic and entropic contributions to the free energy of binding, ITC experiments were performed for selected compounds (21a and 21c–21e) (Table 2, Fig. S3). […] To investigate the factors contributing to the free energy of binding, we solved the structure of SaHPPK in complex with 21a.
# Experiments were performed using an iTC200 instrument (MicroCal) at 298 K, with the ligands titrated into solutions of SaHPPK using 18×2.2 µL injections. Data were fitted using Origin software to yield the thermodynamic parameters, ΔH, KD and N (the binding stoichiometry), assuming a cell volume of 0.2 mL. These were then used to calculate the Gibb’s free energy of binding, ΔG (-RT.lnK a), and entropy of binding, ΔS (using ΔG = ΔH - TΔS). A stock solution of SaHPPK was dialyzed overnight into 50 mM HEPES, 1 mM TCEP, 10 mM MgCl2, pH 8.0 buffer with the addition of 5% DMSO (v/v) prior to running the experiment. For titrations with compounds 21a–e, SaHPPK was typically at 30 µM and the ligand stocks were at 1–1.5 mM dissolved in the above buffer then diluted into more of the same buffer. There was no apparent issue with limited solubility of 21a–c compromising either the stock solutions or the injected concentrations.
# SaHPPK [3] = molecular target: T1, SaHPPK; details: cofactor analogue; no reference given; cited from earlier work
# SaHPPK [4] = molecular target: T1, SaHPPK; test: 2D 15N NMR titration of 15N-labelled SaHPPK; format: binding
# Method: ^15N-labelled protein samples for NMR spectroscopy were prepared as described. 2D soFast ^15N HMQC [43] NMR experiments were recorded on a Varian Inova 600 MHz NMR spectrometer equipped with a cryoprobe and Z axis gradient on samples of ∼100 µM ^15N-labelled SaHPPK dissolved in 50 mM HEPES buffer (pH 8.0, 90% H2O 10% D2O, 1% sorbitol) by titrating in aliquots from a 25 mM stock of 21a dissolved in DMSO-D6.
# SaHPPK [5] = molecular target: T1, SaHPPK; design: method as in Chhabra et al PlosONE 2012; details: ITC; ref Chhabra et al PlosONE 2012; cited from earlier work
# SaHPPK [6] = molecular target: T1, SaHPPK; design: method as in PMID 22276115; details: SPR and ITC; cited from earlier work
# SaHPPK [7] = molecular target: T1, SaHPPK; design: method as in PMID 22276115; details: inhibition of the S. aureus enzyme; cited from earlier work
# HPPK = molecular target: HPPK; design: method as in PMID 10751386, PMID 12093297, PMID 11311059, PMID 10825540, PMID 22169600; details: ATP binds prior to the substrate; cited from earlier work
# [8] = SPR, in the presence of 10 mM Mg2+/1 mM ATP, 293 K, read-out: K D b
# [9] = SPR, in the presence of 10 mM Mg2+, 293 K, read-out: K D a
# [10] = SPR, in the presence of 10 mM Mg2+, 293 K
# T1 sequence (A0A0H3JXR3 entry or part of it): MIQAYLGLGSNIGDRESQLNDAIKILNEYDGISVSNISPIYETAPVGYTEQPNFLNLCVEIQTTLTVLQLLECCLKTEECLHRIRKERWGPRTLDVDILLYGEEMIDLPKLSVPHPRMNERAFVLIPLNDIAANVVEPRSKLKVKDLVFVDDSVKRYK
SMILES,Kd (SaHPPK [1]; [8]) [µM],Kd (SaHPPK [1]; [9]) [µM],N (binding stoichiometry) (SaHPPK [2]),ΔH (SaHPPK [2]) [kcal/mol],ΔG (SaHPPK [2]) [kcal/mol],TΔS (SaHPPK [2]) [kcal/mol],Kd (SaHPPK [2]) [µM],melting point,other results
"NCCCn1c(S)nc2nc(N)[nH]c(=O)c21 [21d, 7-(3-Aminopropyl)-8-mercaptoguanine]",121 ± 6,25.9 ± 2,1.3±0.05,-6.2 ± 0.4,-6.0 ± 0.1,-0.2 ± 0.5,34.3 ± 6.2,239 to 243 °C (dec.),–
Nc1ncnc2c1ncn2[C@@H]1O[C@H](COP(=O)(O)CP(=O)(O)OP(=O)(O)O)[C@@H](O)[C@H]1O [AMPCPP],–,–,–,–,–,–,–,–,Kd (SaHPPK [3]): 3 µM
"Nc1nc2nc(S)n(CCO)c2c(=O)[nH]1 [21a, 7-(2-Hydroxyethyl)-8-mercaptoguanine]",130 ± 10,12.3 ± 1,0.8±0.10,-10.5 ± 0.6,-6.4 ± 0.1,-4.1 ± 0.5,16.7 ± 3.5,> 300 °C,"Kd (SaHPPK [1]; approximate value, over 15 heavy atoms, read-out: K D (ligand efficiency comparison)): ~10 µM; binding relative to the cofactor (ATP / AMPCPP) (SaHPPK [4]; NMR (and SPR), saturating AMPCPP 1 mM, 10 mM magnesium): competitive binding with the ATP cofactor; also recorded: competitive with AMPCPP; magnesium dependence of binding (SaHPPK [4]; titration into apo and magnesium-loaded SaHPPK): not magnesium-dependent"
"N=C(N)NCCn1c(S)nc2nc(N)[nH]c(=O)c21 [21e, 7-(2-Guanidinoethyl)-8-mercaptoguanine]",–,30 ± 4,1.4±0.02,-4.3 ± 0.1,-6.0 ± 0.1,1.7 ± 0.2,35.1 ± 4.8,256 to 262 °C (dec.),"K D b (SaHPPK [1]; SPR, in the presence of 10 mM Mg2+/1 mM ATP, 293 K): No binding"
Cn1c(S)nc2c(=O)[nH]c(N)nc21 [15a],410 ± 10,194 ± 5,–,–,–,–,–,–,–
"Nc1nc2nc(S)n(CC(=O)O)c2c(=O)[nH]1 [21b, 2-(8-Mercaptoguanin-7-yl)acetic acid]",140 ± 4,–,–,–,–,–,–,247 to 253 °C (dec.),K D a (SaHPPK [1]; [10]): did not bind; also recorded: No binding
"Nc1nc2nc(S)[nH]c2c(=O)[nH]1 [8-MG, 8-mercaptoguanine]",–,–,–,–,–,–,–,–,N (binding stoichiometry) (SaHPPK [5]): 1.0±0.06; TΔS (SaHPPK [5]): -12.9 ± 3.5 kcal/mol; ΔG (SaHPPK [5]): -6.7 ± 0.2 kcal/mol; ΔH (SaHPPK [5]): -19.6 ± 3.4 kcal/mol; binding relative to the cofactor (ATP / AMPCPP) (SaHPPK [6]): non-competitive; IC50 (SaHPPK [7]): ~41 µM
"CNc1nc2nc(N)[nH]c(=O)c2[nH]1 [10a, 8-(Methylamino)guanine]",108 ± 5,–,–,–,–,–,–,252 to 257 °C (dec.),K D a (SaHPPK [1]; [10]): did not bind; also recorded: No binding
Nc1ncnc2c1ncn2[C@@H]1O[C@H](COP(=O)(O)OP(=O)(O)OP(=O)(O)O)[C@@H](O)[C@H]1O [ATP],–,–,–,–,–,–,–,–,Kd (HPPK): 2.6 to 4.5 µM
"Nc1nc2c(nc(S)n2Cc2ccccc2)c(=O)[nH]1 [15c, 8-Mercapto-9-benzylguanine]",201 ± 6,106 ± 2,–,–,–,–,–,> 300 °C (dec.),–
"Nc1nc2c(nc(S)n2CCc2ccccc2)c(=O)[nH]1 [15d, 8-Mercapto-9-phenethylguanine]",510 ± 20,145 ± 4,–,–,–,–,–,291 to 295 °C (dec.),–
"NCCn1c(S)nc2nc(N)[nH]c(=O)c21 [21c, 7-(2-Aminoethyl)-8-mercaptoguanine]",160 ± 20,26.4 ± 3,1.2±0.02,-5.8 ± 0.1,-6.2 ± 0.1,0.4 ± 0.2,22.4 ± 2,280 to 287 °C (dec.),–
"CCn1c(S)nc2c(=O)[nH]c(N)nc21 [15b, 8-Mercapto-9-ethylguanine]",340 ± 10,190 ± 10,–,–,–,–,–,240 to 244 °C (dec.),–

# — publication PMC3614987, “Exploring the Chemical Space around 8-Mercaptoguanine as a Route to New Inhibitors of the Folate Biosynthesis Enzyme HPPK” (PLoS ONE, 2013)
